Assay results taken from patent publication JP2005255641A, “ベンゾフラン誘導体” (Kyowa Hakko Kogyo Co Ltd, priority 2004, dated 2005).

Target: T1, recombinant human PDE-IV (HSPDE4A) [組み換えヒトPDE−IV (HSPDE4A)] (Homo sapiens, UniProt P27815)
T1 construct: made in house; host or cells: Sf9 insect cells
Assay: Recombinant human PDE-IV enzyme inhibition test
Format: biochemical
Conditions: read-out: enzyme inhibitory activity; for inhibition: drug concentration 1 μmol/L, [3H]cAMP 1 μmol/L, 30 °C, 10-30 min, DMSO 1.7%

T1 sequence (P27815 whole entry): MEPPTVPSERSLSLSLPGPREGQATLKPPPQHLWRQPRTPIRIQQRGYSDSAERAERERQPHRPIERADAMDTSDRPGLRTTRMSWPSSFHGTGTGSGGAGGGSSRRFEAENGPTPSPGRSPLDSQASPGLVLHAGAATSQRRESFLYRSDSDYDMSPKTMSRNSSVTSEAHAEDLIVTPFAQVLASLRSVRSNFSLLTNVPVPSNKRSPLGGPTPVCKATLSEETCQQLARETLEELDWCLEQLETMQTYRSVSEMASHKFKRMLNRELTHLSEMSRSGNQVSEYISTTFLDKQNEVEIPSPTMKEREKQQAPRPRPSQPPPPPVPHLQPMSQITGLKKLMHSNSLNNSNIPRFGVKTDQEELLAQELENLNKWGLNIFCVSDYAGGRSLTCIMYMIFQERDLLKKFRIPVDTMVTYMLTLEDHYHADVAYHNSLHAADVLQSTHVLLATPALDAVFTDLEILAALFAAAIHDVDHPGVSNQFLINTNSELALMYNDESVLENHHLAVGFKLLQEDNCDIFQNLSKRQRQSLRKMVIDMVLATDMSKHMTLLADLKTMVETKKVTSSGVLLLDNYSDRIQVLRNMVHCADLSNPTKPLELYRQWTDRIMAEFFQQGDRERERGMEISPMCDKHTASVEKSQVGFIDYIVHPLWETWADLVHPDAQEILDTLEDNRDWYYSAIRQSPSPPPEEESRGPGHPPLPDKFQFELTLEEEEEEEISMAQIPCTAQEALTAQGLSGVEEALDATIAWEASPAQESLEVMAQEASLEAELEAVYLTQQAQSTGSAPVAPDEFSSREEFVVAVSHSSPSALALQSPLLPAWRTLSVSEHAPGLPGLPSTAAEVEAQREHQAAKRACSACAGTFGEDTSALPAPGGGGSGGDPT

Row | Structure (SMILES) | inhibition [%] | inhibition at 1 µM [%]
1 | CCc1cc2c(C3(C#N)CCN(CC(=O)O)CC3)ccc(OC)c2o1 [化合物76, 2−(4−シアノ−4−(2−エチル−7−メトキシベンゾフラン−4−イル)ピペリジン−1−イル)酢酸, 0.3H2O] | ≥ 50 | 
2 | COc1ccc(C2(C#N)CCN(CC(=O)O)CC2)c2cc(C(C)C)oc12 [化合物77, 2−(4−シアノ−4−(2−イソプロピル−7−メトキシベンゾフラン−4−イル)ピペリジン−1−イル)酢酸 塩酸塩] |  | ≥ 50
3 | COc1ccc(C2(C#N)CCN(CC(=O)O)CC2)c2cc(C(C)(C)C)oc12 [化合物78, 2−(4−(2−tert−ブチル−7−メトキシベンゾフラン−4−イル)−4−シアノピペリジン−1−イル)酢酸 塩酸塩] |  | ≥ 50
4 | COc1ccc(C2(C#N)CCN(CC(=O)O)CC2)c2cc(CC(C)C)oc12 [化合物79, 2−(4−シアノ−4−(2−イソブチル−7−メトキシベンゾフラン−4−イル)ピペリジン−1−イル)酢酸 塩酸塩] |  | ≥ 50
5 | COc1ccc(C2(C#N)CCN(CC(=O)O)CC2)c2cc(CC(C)(C)C)oc12 [化合物80, 2−(4−(7−メトキシ−2−ネオペンチルベンゾフラン−4−イル)−4−シアノピペリジン−1−イル)酢酸 塩酸塩] |  | ≥ 50
6 | COc1ccc(C2(C#N)CCN(CC(=O)O)CC2)c2cc(Cc3ccccc3)oc12 [化合物81, 2−(4−(2−ベンジル−7−メトキシベンゾフラン−4−イル)−4−シアノピペリジン−1−イル)酢酸 塩酸塩] |  | ≥ 50
7 | COc1ccc(C2(C#N)CCN(CC(=O)O)CC2)c2cc(C3CCC3)oc12 [化合物82, 2−(4−シアノ−4−(2−シクロブチル−7−メトキシベンゾフラン−4−イル)ピペリジン−1−イル)酢酸 塩酸塩] |  | ≥ 50
8 | COc1ccc(C2(C#N)CCN(CC(=O)O)CC2)c2cc(C3CC3)oc12 [化合物83, 2−(4−シアノ−4−(2−シクロプロピル−7−メトキシベンゾフラン−4−イル)ピペリジン−1−イル)酢酸 塩酸塩] |  | ≥ 50
9 | COc1ccc(C2(C#N)CCN(CC(=O)O)CC2)c2cc(C3CC3C)oc12 (centres unmarked) [化合物84, 2−(4−シアノ−4−(7−メトキシ−2−(2−メチルシクロプロピル)ベンゾフラン−4−イル)ピペリジン−1−イル)酢酸 塩酸塩] |  | ≥ 50
10 | COc1ccc(C2(C#N)CCN(CC(=O)O)CC2)c2cc(C3(C)CC3)oc12 [化合物87, 2−(4−シアノ−4−(7−メトキシ−2−(1−メチルシクロプロピル)ベンゾフラン−4−イル)ピペリジン−1−イル)酢酸 塩酸塩] |  | ≥ 50
11 | COc1ccc(C2(C#N)CCN(CC(=O)O)CC2)c2cc(C3(c4ccccc4)CC3)oc12 [化合物88, 2−(4−シアノ−4−(7−メトキシ−2−(1−フェニルシクロプロピル)ベンゾフラン−4−イル)ピペリジン−1−イル)酢酸 塩酸塩] |  | ≥ 50
12 | N#CC1(c2ccc(OC(F)F)c3oc(C4CC4)cc23)CCN(CC(=O)O)CC1 [化合物89, 2−(4−シアノ−4−(2−シクロプロピル−7−ジフルオロメトキシベンゾフラン−4−イル)ピペリジン−1−イル)酢酸 塩酸塩] |  | ≥ 50
13 | COc1ccc(C2(C#N)CCN(CC(=O)O)CC2)c2cc(C(C)=O)oc12 [化合物90, 2−(4−(2−アセチル−7−メトキシベンゾフラン−4−イル)−4−シアノピペリジン−1−イル)酢酸] | ≥ 50 | 
14 | COc1ccc(C2(C#N)CCN(CC(=O)O)CC2)c2cc(C(=O)C(C)C)oc12 [化合物91, 2−(4−シアノ−4−(2−イソブチリル−7−メトキシベンゾフラン−4−イル)ピペリジン−1−イル)酢酸] | ≥ 50 | 
15 | COc1ccc(C2(C#N)CCN(CC(=O)O)CC2)c2cc(C(=O)c3ccccc3)oc12 [化合物92, 2−(4−(2−ベンゾイル−7−メトキシベンゾフラン−4−イル)−4−シアノピペリジン−1−イル)酢酸] | ≥ 50 | 
16 | COC(=O)c1cc2c(C3(C#N)CCN(CC(=O)O)CC3)ccc(OC)c2o1 [化合物93, 2−(4−シアノ−4−(7−メトキシ−2−メトキシカルボニルベンゾフラン−4−イル)ピペリジン−1−イル)酢酸] | ≥ 50 | 
17 | COc1ccc(C2(C#N)CCN(CC(=O)O)CC2)c2cc(C#N)oc12 [化合物99, 2−(4−シアノ−4−(2−シアノ−7−メトキシベンゾフラン−4−イル)ピペリジン−1−イル)酢酸] | ≥ 50 | 
18 | COc1ccc(C2(C#N)CCN(CC(=O)O)CC2)c2c3c(oc12)CCCC3 [化合物100, 2−(4−シアノ−4−(6−メトキシ−1,2,3,4−テトラヒドロジベンゾフラン−9−イル)ピペリジン−1−イル)酢酸 塩酸塩] |  | ≥ 50
19 | CCc1cc2c(o1)c(OC)ccc2[C@]1(C#N)CC[C@@H](C(=O)O)CC1 [化合物101, シス−4−シアノ−4−(2−エチル−7−メトキシベンゾフラン−4−イル)シクロヘキサンカルボン酸] | ≥ 50 | 

Row | Structure (SMILES) | inhibition [%] | inhibition at 1 µM [%]
20 | COc1ccc([C@]2(C#N)CC[C@@H](C(=O)O)CC2)c2cc(C3(C)CC3)oc12 [化合物103, シス−4−シアノ−4−(7−メトキシ−2−(1−メチルシクロプロピル)ベンゾフラン−4−イル)シクロヘキサンカルボン酸] | ≥ 50 | 
21 | COc1ccc([C@]2(C#N)CC[C@@H](C(=O)O)CC2)c2cc(C3(C(F)(F)F)CC3)oc12 [化合物104, シス−4−シアノ−4−(7−メトキシ−2−(1−トリフルオロメチルシクロプロピル)ベンゾフラン−4−イル)シクロヘキサンカルボン酸] | ≥ 50 | 
22 | N#C[C@]1(c2ccc(OC(F)F)c3oc(C4CC4)cc32)CC[C@H](C(=O)O)CC1 [化合物106, シス−4−シアノ−4−(2−シクロプロピル−7−ジフルオロメトキシベンゾフラン−4−イル)シクロヘキサンカルボン酸, 0.2H2O] | ≥ 50 | 
23 | CC1(c2cc3c(o2)c(OC(F)F)ccc3[C@]2(C#N)CC[C@@H](C(=O)O)CC2)CC1 [化合物107, シス−4−シアノ−4−(7−ジフルオロメトキシ−2−(1−メチルシクロプロピル)ベンゾフラン−4−イル)シクロヘキサンカルボン酸] | ≥ 50 | 
24 | COc1ccc([C@]2(C#N)CC[C@@H](C(=O)O)CC2)c2cc(C(C)O)oc12 (some centres unmarked) [化合物108, シス−4−シアノ−4−(2−(1−ヒドロキシエチル)−7−メトキシベンゾフラン−4−イル)シクロヘキサンカルボン酸] | ≥ 50 | 
25 | COc1ccc([C@]2(C#N)CC[C@@H](C(=O)O)CC2)c2cc(C(C)=O)oc12 [化合物109, シス−4−(2−アセチル−7−メトキシベンゾフラン−4−イル)−4−シアノシクロヘキサンカルボン酸] | ≥ 50 | 
26 | COc1ccc([C@]2(C#N)CC[C@@H](C(=O)O)CC2)c2cc(C(C)(C)O)oc12 [化合物110, シス−4−シアノ−4−(2−(1−ヒドロキシ−1−メチルエチル)−7−メトキシベンゾフラン−4−イル)シクロヘキサンカルボン酸] | ≥ 50 | 
27 | COc1ccc([C@]2(C#N)CC[C@@H](C(=O)O)CC2)c2cc(C(=O)c3ccccc3)oc12 [化合物111, シス−4−(2−ベンゾイル−7−メトキシベンゾフラン−4−イル)−4−シアノシクロヘキサンカルボン酸] | ≥ 50 | 
28 | COc1ccc([C@]2(C#N)CC[C@@H](C(=O)O)CC2)c2cc(C(=O)c3ccncc3)oc12 [化合物112, シス−4−シアノ−4−(2−イソニコチノイル−7−メトキシベンゾフラン−4−イル)シクロヘキサンカルボン酸] | ≥ 50 | 
29 | COc1ccc([C@]2(C#N)CC[C@@H](C(=O)O)CC2)c2cc(C(=O)c3cc[n+]([O-])cc3)oc12 [化合物113, シス−4−シアノ−4−(2−(イソニコチノイル−1−オキシド)−7−メトキシベンゾフラン−4−イル)シクロヘキサンカルボン酸, 0.2H2O] | ≥ 50 | 
30 | COc1ccc([C@]2(C#N)CC[C@@H](C(=O)O)CC2)c2cc(C(=O)N3CCN(C)CC3)oc12 [化合物114, シス−4−シアノ−4−(7−メトキシ−2−(4−メチルピペラジン−1−イルカルボニル)ベンゾフラン−4−イル)シクロヘキサンカルボン酸 塩酸塩] | ≥ 50 | 
31 | COc1ccc([C@]2(C#N)CC[C@@H](C(=O)O)CC2)c2cc(C(=O)N3CCN(CCO)CC3)oc12 [化合物115, シス−4−シアノ−4−(2−(4−(2−ヒドロキシエチル)ピペラジン−1−イルカルボニル)−7−メトキシベンゾフラン−4−イル)シクロヘキサンカルボン酸 塩酸塩] | ≥ 50 | 
32 | COc1ccc([C@]2(C#N)CC[C@@H](C(=O)O)CC2)c2cc(C(=O)N3CCC(N4CCCC4)CC3)oc12 [化合物116, シス−4−シアノ−4−(7−メトキシ−2−(4−(ピロリジン−1−イル)ピペリジノカルボニル)ベンゾフラン−4−イル)シクロヘキサンカルボン酸 塩酸塩] | ≥ 50 | 
33 | COc1ccc([C@]2(C#N)CC[C@@H](C(=O)O)CC2)c2cc(C#N)oc12 [化合物121, シス−4−シアノ−4−(2−シアノ−7−メトキシベンゾフラン−4−イル)シクロヘキサンカルボン酸] | ≥ 50 | 
34 | C=Cc1ccc([C@]2(C#N)CC[C@@H](C(=O)O)CC2)c2cc(C(=O)c3ccccc3)oc12 [化合物122, シス−4−(2−ベンゾイル−7−ビニルベンゾフラン−4−イル)−4−シアノシクロヘキサンカルボン酸, 0.4H2O] | ≥ 50 | 
35 | CCc1ccc([C@]2(C#N)CC[C@@H](C(=O)O)CC2)c2cc(C(=O)c3ccccc3)oc12 [化合物123, シス−4−(2−ベンゾイル−7−エチルベンゾフラン−4−イル)−4−シアノシクロヘキサンカルボン酸] | ≥ 50 | 
36 | COc1ccc([C@]2(C#N)CC[C@@H](C(=O)O)CC2)c2oc(C(=O)c3ccccc3)cc12 [化合物124, シス−4−(2−ベンゾイル−4−メトキシベンゾフラン−7−イル)−4−シアノシクロヘキサンカルボン酸] | ≥ 50 | 
37 | C=Cc1ccc([C@]2(C#N)CC[C@@H](C(=O)O)CC2)c2oc(C(=O)c3ccccc3)cc12 [化合物126, シス−4−(2−ベンゾイル−4−ビニルベンゾフラン−7−イル)−4−シアノシクロヘキサンカルボン酸] | ≥ 50 | 
38 | CCc1ccc([C@]2(C#N)CC[C@@H](C(=O)O)CC2)c2oc(C(=O)c3ccccc3)cc12 [化合物127, シス−4−(2−ベンゾイル−4−エチルベンゾフラン−7−イル)−4−シアノシクロヘキサンカルボン酸] | ≥ 50 | 
